Literature values as cited in patent publication US20040072764A1, “Composition, in particular cosmetic, containing 7-hydroxy dhea and/or 7-keto dhea and at least an isoflavonoid” (priority 2000, published 2004).

Experiments:
fibroblasts = conditions: cited from WO 98/40074
[1] = cited from WO 98/40074
human keratinocytes = conditions: cited from WO 98/40074
skin = conditions: on rats; cited from WO 00/28996

With `C[C@]12CC[C@H](O)CC1=C[C@@H](O)[C@@H]1[C@@H]2CC[C@]2(C)C(=O)CC[C@@H]12` [7α-hydroxy-DHEA] as the compound, how does the “proliferation of the fibroblasts” value (fibroblasts) read?
The value was “increase”.

What about the anti-free radical effects [1] of the same compound?
The anti-free radical effects was “had anti-free radical effects”.

And the “viability of the human keratinocytes” value (human keratinocytes)?
Its value is “increase”.

What about the “collagen content of the skin” value (skin) of the same compound?
The value was “increased”.

What about the “elastin content of the skin” value (skin) of the same compound?
The value was “increased”.

What about the “thickness of the dermis” value (skin) of the same compound?
The value was “increased”.
